According to PubChem BioAssay (NCI):
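Compound exposure: 48 hours, 5 concentrations, 96-well plates. Definition used: TGI = concentration required for complete inhibition of growth.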

Columns and labels:
Assay in all cases: NCI tumour cell line growth inhibition, 48 h
[1] = tested on: SK-MEL-28 melanoma
[2] = tested on: LOX IMVI melanoma
[3] = tested on: SF-295 CNS
[4] = tested on: EKVX NSCLC
[5] = tested on: SK-OV-3 ovarian
[6] = tested on: PC-3 prostate
[7] = tested on: DU-145 prostate
[8] = tested on: MDA-MB-435
[9] = tested on: SNB-75 CNS
[10] = tested on: DMS 273 small cell lung
[11] = tested on: A498 renal
[12] = tested on: 786-0 renal
[13] = tested on: SF-268 CNS
[14] = tested on: NCI-H460 lung
[15] = tested on: T-47D breast
[16] = tested on: M19-MEL melanoma
[17] = tested on: SK-MEL-5 melanoma
[18] = tested on: HL-60(TB) leukemia
[19] = tested on: NCI-H226 lung
[20] = tested on: SW-620 colon
[21] = tested on: OVCAR-8 ovarian
[22] = tested on: A549 NSCLC
[23] = tested on: NCI-H522 lung
[24] = tested on: UACC-257 melanoma
[25] = tested on: HOP-62 NSCLC
[26] = tested on: RXF 393 renal
[27] = tested on: HS 578T breast
[28] = tested on: SNB-19 CNS
[29] = tested on: UO-31 renal
[30] = tested on: DMS 114 small cell lung
[31] = tested on: KM12 colon
[32] = tested on: OVCAR-5 ovarian
[33] = tested on: SR leukemia
[34] = tested on: LXFL 529 NSCLC
[35] = tested on: SNB-78 CNS
[36] = tested on: SF-539 CNS
[37] = tested on: HCT-15 colon
[38] = tested on: SN12C renal
[39] = tested on: K-562 leukemia
[40] = tested on: U251 CNS
[41] = tested on: OVCAR-3 ovarian
[42] = tested on: KM20L2 colon
[43] = tested on: MDA-MB-231 breast
[44] = tested on: NCI-H23 lung
[45] = tested on: OVCAR-4 ovarian
[46] = tested on: CCRF-CEM leukemia
[47] = tested on: MALME-3M melanoma
[48] = tested on: TK-10 renal
[49] = tested on: NCI/ADR-RES ovarian
[50] = tested on: HT29 colon
[51] = tested on: HOP-92 NSCLC
[52] = tested on: ACHN renal
[53] = tested on: RPMI-8226 leukemia
[54] = tested on: M14 melanoma
[55] = tested on: HCC-2998 colon
[56] = tested on: MCF7 breast
[57] = tested on: DLD-1 colon
[58] = tested on: HCT-116 colon
[59] = tested on: CAKI-1 renal
[60] = tested on: UACC-62 melanoma
[61] = tested on: BT-549 breast
[62] = tested on: IGROV1 ovarian
[63] = tested on: MOLT-4 leukemia
[64] = tested on: COLO 205 colon
[65] = tested on: MDA-N
[66] = tested on: SK-MEL-2 melanoma

CCc1nc2ccc(N=Nc3c(O)ccc4ccccc34)cc2[nH]1
TGI [1]: 41.5 µM
TGI [2]: 28.8 µM
TGI [3]: 43.5 µM
TGI [4]: 36.1 µM
TGI [5]: > 62 µM
TGI [6]: 37.5 µM
TGI [7]: 31.2 µM
TGI [8]: 67.5 µM
TGI [9]: 37.5 µM
TGI [10]: 35.3 µM
TGI [11]: 50.6 µM
TGI [12]: 37.7 µM
TGI [13]: 53.3 µM
TGI [14]: 36.8 µM
TGI [15]: 59.7 µM
TGI [16]: 33.8 µM
TGI [17]: 40 µM
TGI [18]: 29.8 µM
TGI [19]: 41.1 µM
TGI [20]: 54.4 µM
TGI [21]: 21.6 µM
TGI [22]: 55.8 µM
TGI [23]: 50.3 µM
TGI [24]: 29.4 µM
TGI [25]: 43.6 µM
TGI [26]: 25.6 µM
TGI [27]: 48.6 µM
TGI [28]: > 66 µM
TGI [29]: 34.5 µM
TGI [30]: 35.1 µM
TGI [31]: 31.9 µM
TGI [32]: 34.9 µM
TGI [33]: 24.7 µM
TGI [34]: 24.5 µM
TGI [35]: 32.7 µM
TGI [36]: 35.4 µM
TGI [37]: 33.4 µM
TGI [38]: 38.2 µM
TGI [39]: > 66.1 µM
TGI [40]: 39.9 µM
TGI [41]: 37.2 µM
TGI [42]: 36.9 µM
TGI [43]: 49.5 µM
TGI [44]: 49.2 µM
TGI [45]: 28.4 µM
TGI [46]: 26.4 µM
TGI [47]: 33.6 µM
TGI [48]: 32.6 µM
TGI [49]: 54.8 µM
TGI [50]: 44.1 µM
TGI [51]: 42.7 µM
TGI [52]: 31.5 µM
TGI [53]: > 78 µM
TGI [54]: 35.1 µM
TGI [55]: 29.7 µM
TGI [56]: 42.2 µM
TGI [57]: 57.3 µM
TGI [58]: 30.8 µM
TGI [59]: 40.2 µM
TGI [60]: 35.3 µM
TGI [61]: 36.2 µM
TGI [62]: 36.8 µM
TGI [63]: 81.1 µM
TGI [64]: 39 µM
TGI [65]: 51.5 µM
TGI [66]: 37.9 µM
